According to PMC8712285, “Thermococcus sp. KS-1 PPIase as a fusion partner improving soluble production of aromatic amino acid decarboxylase” (AMB Express, 2021):

Experiments:
PPIase KS-1-AADC [1] = molecular target: T1, PPIase KS-1-AADC (Pseudomonas putida, UniProt Q88JU5); test: HPLC of dopamine formation, cell-free extract; assay type: biochemical; details: 1 mM L-dopa, 50 uM PLP, 2 mM 2-ME, 50 mM potassium phosphate pH 8.0, 30 °C
T1 construct: gene PP_2552; AADC with N-terminal solubility partner Thermococcus sp; not cut; E. coli BL21(DE3)

NusA-AADC = molecular target: T2, NusA-AADC (Pseudomonas putida, UniProt Q88JU5); test: HPLC of dopamine formation, cell-free extract; assay type: biochemical; details: 1 mM L-dopa, 50 uM PLP, 2 mM 2-ME, 50 mM potassium phosphate pH 8.0, 30 °C
T2 construct: gene PP_2552; E. coli BL21(DE3)

[2] = molecular target: T3, AADC (aromatic amino acid decarboxylase) (Pseudomonas putida, UniProt Q88JU5); test: HPLC of dopamine formation, cell-free extract; assay type: biochemical; details: 1 mM L-dopa, 50 uM PLP, 2 mM 2-ME, 50 mM potassium phosphate pH 8.0, 30 °C
T3 construct: gene PP_2552; full-length, untagged, from pET-3a (pAADC) in E. coli BL21(DE3)

PPIase KS-1-AADC [3] = molecular target: T1, PPIase KS-1-AADC; test: HPLC (AccQ-tag) of phenylethylamine produced by recombinant E. coli cells; assay type: cell-based; details: 1 mM L-phenylalanine, M9 minimal medium, 25 °C, whole cells

T1 sequence (Q88JU5 entry or part of it): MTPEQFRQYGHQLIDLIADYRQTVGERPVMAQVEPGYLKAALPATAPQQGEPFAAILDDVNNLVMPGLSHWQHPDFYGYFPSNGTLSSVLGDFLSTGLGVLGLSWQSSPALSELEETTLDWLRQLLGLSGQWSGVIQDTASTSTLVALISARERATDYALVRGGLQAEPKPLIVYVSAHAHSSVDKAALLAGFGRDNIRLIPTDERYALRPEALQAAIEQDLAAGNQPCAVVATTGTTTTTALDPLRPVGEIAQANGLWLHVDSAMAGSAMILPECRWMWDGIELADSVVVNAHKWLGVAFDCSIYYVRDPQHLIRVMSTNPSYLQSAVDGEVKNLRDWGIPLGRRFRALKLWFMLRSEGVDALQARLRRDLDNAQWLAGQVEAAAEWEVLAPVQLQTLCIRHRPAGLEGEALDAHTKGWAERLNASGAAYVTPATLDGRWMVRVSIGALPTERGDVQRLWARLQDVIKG
T2 sequence (Q88JU5 entry or part of it): as above
T3 sequence (Q88JU5 entry or part of it): as above

| Structure (SMILES) | HPLC of dopamine formation, cell-free extract (PPIase KS-1-AADC [1]) | HPLC of dopamine formation, cell-free extract (NusA-AADC) | HPLC of dopamine formation, cell-free extract [2] | HPLC (AccQ-tag) of phenylethylamine produced by recombinant E. coli cells (PPIase KS-1-AADC [3]) |
| --- | --- | --- | --- | --- |
| N[C@@H](Cc1ccc(O)c(O)c1)C(=O)O [L-dopa] | the AADC activity toward L-dopa was significantly higher in PPIase KS−1-AADC as compared to NusA-AADC | the AADC activity toward L-dopa was significantly higher in PPIase KS−1-AADC as compared to NusA-AADC | The AADC activity was measured using these cell-free extracts |  |
| N[C@@H](Cc1ccccc1)C(=O)O [L-phenylalanine] |  |  |  | Phenylethylamine accumulation was also higher in PPIase KS−1-AADC-producing strain |
